In patent publication US20260085034A1, “N-(BENZHYDRYL)CYCLOALKYLCARBOXAMIDE DERIVATIVES AS INHIBITORS OF GLYCOGEN SYNTHASE 1 (GYS1) AND METHODS OF USE THEREOF” (Maze Therapeutics, Inc., priority 2022, published 2026) one finds IC50 data, which are given here for 15 compounds.

Assay [1] addresses T1, recombinant hGYS1/GN1 protein (Homo sapiens, UniProt P13807).
T1 sequence (P13807 1-737): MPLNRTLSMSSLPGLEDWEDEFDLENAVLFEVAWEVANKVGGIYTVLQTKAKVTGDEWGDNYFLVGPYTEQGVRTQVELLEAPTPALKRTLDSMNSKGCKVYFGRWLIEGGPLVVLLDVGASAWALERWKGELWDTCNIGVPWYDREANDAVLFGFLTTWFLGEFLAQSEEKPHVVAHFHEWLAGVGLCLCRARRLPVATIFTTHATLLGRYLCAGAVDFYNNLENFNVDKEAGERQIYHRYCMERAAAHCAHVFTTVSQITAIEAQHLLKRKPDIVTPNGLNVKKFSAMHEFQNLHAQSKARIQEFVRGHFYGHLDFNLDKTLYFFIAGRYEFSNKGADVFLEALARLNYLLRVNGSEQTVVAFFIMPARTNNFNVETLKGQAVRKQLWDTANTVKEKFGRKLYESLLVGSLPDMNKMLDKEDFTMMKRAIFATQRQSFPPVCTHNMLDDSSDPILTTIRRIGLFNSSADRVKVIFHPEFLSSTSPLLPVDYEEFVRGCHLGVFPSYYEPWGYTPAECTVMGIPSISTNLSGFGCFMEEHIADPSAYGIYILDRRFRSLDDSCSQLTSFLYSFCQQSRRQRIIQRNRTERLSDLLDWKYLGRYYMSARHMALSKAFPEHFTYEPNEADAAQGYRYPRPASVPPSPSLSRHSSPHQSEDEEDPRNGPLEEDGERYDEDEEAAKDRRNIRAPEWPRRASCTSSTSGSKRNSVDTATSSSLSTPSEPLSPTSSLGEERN
T1 sequence (P46976 1-350 partner): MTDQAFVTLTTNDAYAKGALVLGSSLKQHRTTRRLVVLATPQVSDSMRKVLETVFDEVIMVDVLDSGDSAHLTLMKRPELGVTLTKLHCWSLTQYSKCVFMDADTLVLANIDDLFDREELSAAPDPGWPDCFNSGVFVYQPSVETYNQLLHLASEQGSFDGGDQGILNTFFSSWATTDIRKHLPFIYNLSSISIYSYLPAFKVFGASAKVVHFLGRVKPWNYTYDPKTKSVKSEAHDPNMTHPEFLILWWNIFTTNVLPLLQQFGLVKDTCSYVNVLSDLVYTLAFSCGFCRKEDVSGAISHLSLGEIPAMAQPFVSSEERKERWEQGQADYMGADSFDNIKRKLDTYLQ
As to the kind of experiment: GYS1 coupled enzyme assay (PK/LDH). The note with it: geometric mean of at least 2 assay runs; NADH absorbance at 340 nm. Type of assay: biochemical. The source says:
(§1) The GYS1 coupled enzyme assay is a kinetic biochemical assay that indirectly quantifies the rate of glycogen synthesis by coupling the conversion of GYS1 substrate UDP-glucose into UDP with downstream enzymatic reactions. UDP is released from UDP-glucose as glucose monomers are linked into the growing glycogen strand by GYS1. The coupled assay then proceeds with pyruvate kinase utilizing UDP and phospho(enol)pyruvate (PEP) to form pyruvate. Lactate dehydrogenase then converts pyruvate and NADH into lactate and NAD+. Oxidation of NADH to NAD+ can be measured continuously with a plate reader by quantifying the decrease in NADH absorbance at 340 nm over time.
Compounds that inhibit the hGYS1 enzyme and, subsequently, the downstream conversion of NADH to NAD+, were tested using assay ready plates (black, clear bottom 384 well plates) in a final DMSO reaction volume of 2.5% DMSO. The Assay Buffer contained 50 mM Tris pH 7.5, 2 mM MgCl2, and 100 mM KCl. Fresh stocks of BSA at a final concentration of 0.02% and TCEP at 1 mM were added before splitting buffer into hGYS1 buffer and substrate buffer. To the hGYS1 buffer, rabbit liver glycogen was added at a final concentration of 0.2% glycogen. Glucose-6-Phosphate was added at 1 mM, recombinant hGYS1/GN1 protein was added at 50 nM to the substrate buffer, phosphoenolpyruvate (PEP) was added at 2 mM, UDP-Glucose was added at 0.8 mM, NADH) was added at 0.6 mM, and Pyruvate Kinase/Lactate Dehydrogenase was added at 20 units/mL. The reaction was initiated by mixing hGYS1 buffer and substrate buffer at a 1:1 ratio. Both buffers were plated using a liquid dispensing device with hGYS1 buffer plated first followed by the substrate buffer. Plates were spun briefly to eliminate air bubbles and are immediately read in continuous mode at an absorbance of 340 nm, for 10 time points in one-minute increments, for a total of 10 minutes. The slope from these 10 time points was normalized to the positive and negative control wells. The duplicate % inhibition values are then averaged and fit to a Hill equation for dose response according to the Levenberg-Marquardt algorithm with the Hill equation maximum set to 100 and the minimum set to 0.
The results are shown in Table 3 below, which reports the IC50 of each compound. Unless otherwise specified, IC50 values are reported as the geometric mean of at least 2 assay runs on separate days. Each run represents the average of a technical replicate, where each compound was assayed twice in the same plate. As shown in the table below, the compounds of the present invention are potent inhibitors of human GYS1.

Assay [2] addresses T2, recombinant hGYS2/GN1 protein (Homo sapiens, UniProt P54840).
T2 sequence (P54840 1-703): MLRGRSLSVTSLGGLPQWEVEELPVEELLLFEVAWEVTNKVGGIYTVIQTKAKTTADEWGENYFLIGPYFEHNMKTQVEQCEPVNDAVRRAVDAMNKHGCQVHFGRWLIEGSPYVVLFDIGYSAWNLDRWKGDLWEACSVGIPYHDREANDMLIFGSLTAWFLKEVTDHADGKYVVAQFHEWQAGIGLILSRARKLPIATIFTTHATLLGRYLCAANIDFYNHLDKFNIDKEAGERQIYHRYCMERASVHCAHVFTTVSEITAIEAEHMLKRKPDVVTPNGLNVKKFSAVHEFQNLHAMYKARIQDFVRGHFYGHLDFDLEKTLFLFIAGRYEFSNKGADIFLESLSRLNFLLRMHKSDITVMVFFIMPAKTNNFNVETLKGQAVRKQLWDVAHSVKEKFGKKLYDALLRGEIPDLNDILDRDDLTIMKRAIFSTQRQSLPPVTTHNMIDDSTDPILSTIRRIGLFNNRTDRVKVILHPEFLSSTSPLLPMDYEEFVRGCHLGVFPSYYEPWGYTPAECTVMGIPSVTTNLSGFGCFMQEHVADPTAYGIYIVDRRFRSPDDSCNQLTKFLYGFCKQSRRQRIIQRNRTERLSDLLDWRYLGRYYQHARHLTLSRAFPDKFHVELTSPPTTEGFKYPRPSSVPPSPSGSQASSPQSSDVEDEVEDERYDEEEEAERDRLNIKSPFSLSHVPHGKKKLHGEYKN
T2 sequence (P46976 1-350 partner): T1 sequence (P46976 1-350 partner)
Briefly: GYS2 coupled enzyme assay (PK/LDH). Type of assay: biochemical. The note with it: geometric mean of at least 2 assay runs; NADH absorbance at 340 nm.
Excerpt: as §1, with “GYS2” for “GYS1”, “GYS2.” for “GYS1.”
Compounds that inhibit the hGYS2 enzyme and, subsequently, the downstream conversion of NADH to NAD+, were tested using assay ready plates (black, clear bottom 384 well plates) in a final DMSO reaction volume of 2.5% DMSO. The Assay Buffer contained 50 mM Tris pH 7.5, 2 mM MgCl2, and 100 mM KCl. Fresh stocks of BSA at a final concentration of 0.02% and TCEP 1 mM were added before splitting buffer into hGYS2 buffer and substrate buffer. To the hGYS2 buffer, rabbit liver glycogen was added at a final concentration of 0.2% glycogen. Glucose-6-Phosphate was added at 2 mM, recombinant hGYS2/GN1 protein was added at 200 nM to the substrate buffer, phosphoenolpyruvate (PEP) was added at 2 mM, UDP-Glucose was added at 2 mM, NADH was added at 0.6 mM, and Pyruvate Kinase/Lactate Dehydrogenase was added at 20 units/mL. The reaction was initiated by mixing hGYS2 buffer and substrate buffer at a 1:1 ratio. Both buffers were plated using a liquid dispensing device with hGYS2 buffer plated first followed by the substrate buffer. Plates were spun briefly to eliminate air bubbles and are immediately read in continuous mode at an absorbance of 340 nm, for 10 time points in one-minute increments, for a total of 10 minutes. The slope from these 10 time points was normalized to the positive and negative control wells. The duplicate % inhibition values are then averaged and fit to a Hill equation for dose response according to the Levenberg-Marquardt algorithm with the Hill equation maximum set to 100 and the minimum set to 0.
The results are shown in Table 5 below, which reports the IC50 of each compound. Unless otherwise specified, IC50 values are reported as the geometric mean of at least 2 assay runs on separate days. As shown in the table below, the compounds of the present invention are not potent inhibitors of human GYS2. […] Each run represents the average of a technical replicate, where each compound was assayed twice in the same plate.

What is called IC50 is the concentration that inhibits the measured activity by half. For `CCC(=O)Nc1ccccc1[C@H](NC(=O)C1CC1)c1ccc(C(C)C)cc1` [compound 59, (R)-N-((4-isopropylphenyl)(2-propionamidophenyl)methyl)cyclopropanecarboxamide], the results for the concentration for half-maximal inhibition (IC50) in assay [1] and in assay [2] were 441 nM and above 100000 nM, respectively.

On to `COc1cccc([C@H](NC(=O)C2CC2)c2ccc(C(C)C)cc2)c1C` [compound 63, (R)-N-((4-isopropylphenyl)(3-methoxy-2-methylphenyl)methyl)cyclopropanecarboxamide], for which the concentration for half-maximal inhibition (IC50) was 1430 nM in assay [1] and above 100000 nM in assay [2].

Turning to `CC(C)c1ccc([C@@H](NC(=O)C2CC2)c2ccccc2NC(=O)C2CN(C)C2)cc1` [compound 26, (R)-N-(2-(cyclopropanecarboxamido(4-isopropylphenyl)methyl)phenyl)-1-methylazetidine-3-carboxamide], the IC50 in assay [1] was 1190 nM; in assay [2] it was above 100000 nM.

For `CC(C)c1ccc([C@@H](NC(=O)C2CC2)c2ccccc2N)cc1` (single isomer, unassigned) [compound 64], the IC50 in assay [1] was 404 nM; in assay [2], above 100000 nM.

Turning to `CNC(=O)Nc1ccccc1[C@H](NC(=O)C1CC1)c1ccc(C(C)C)cc1` [compound 53, (R)-N-((4-isopropylphenyl)(2-(3-methylureido)phenyl)methyl)cyclopropanecarboxamide], the IC50 was 1230 nM in assay [1] and above 100000 nM in assay [2].

As to `CC(C)c1ccc([C@@H](NC(=O)C2CC2)c2cccc3[nH]c(=O)[nH]c23)cc1` (single isomer, unassigned) [compound 29], the IC50 in assay [1] is 169 nM; in assay [2], above 100000 nM.

With `CC(C)c1ccc([C@@H](NC(=O)C2CC2)c2cccnc2N)cc1` (single isomer, unassigned) [compound 51], the figures for the IC50 in assay [1] and in assay [2] were 735 nM and above 100000 nM, respectively.

Regarding `CC(C)c1ccc([C@@H](NC(=O)C2CC2)c2ccccc2NC(=O)C2COC2)cc1` [compound 60, (R)-N-(2-(cyclopropanecarboxamido(4-isopropylphenyl)methyl)phenyl)oxetane-3-carboxamide], the IC50 in assay [1] was 521 nM; in assay [2] it was above 100000 nM.

`CC(C)c1ccc([C@@H](NC(=O)C2CC2)c2ccccc2NC(=O)C2CC2)cc1` (single isomer, unassigned) [compound 61]: the results for the IC50 in assay [1] and in assay [2] were 710 nM and above 100000 nM, respectively.

On to `CNc1ccccc1[C@H](NC(=O)C1CC1)c1ccc(C(C)C)cc1` (single isomer, unassigned) [compound 39], for which the IC50 was 502 nM in assay [1] and above 100000 nM in assay [2].

As for `CC(C)c1ccc([C@@H](NC(=O)[C@H]2C[C@@H]2F)c2ccccc2NC(N)=O)cc1F` (single isomer, unassigned) [compound 10], the IC50 in assay [1] was 194 nM; in assay [2], above 100000 nM.

`CC(C)c1ccc([C@@H](NC(=O)C2CC2)c2ccccc2)cc1` [compound 73, (S)-N-((4-isopropylphenyl)(phenyl)methyl)cyclopropanecarboxamide]: the IC50 in assay [1] was 706 nM; in assay [2], above 100000 nM.

Consider `CC(C)c1ccc([C@@H](NC(=O)C2CC2)c2ccccc2Cl)cc1` (single isomer, unassigned) [compound 58], for which the concentration for half-maximal inhibition (IC50) in assay [1] is 1380 nM; in assay [2] it was above 100000 nM.

For `CC(=O)Nc1ccccc1[C@H](NC(=O)C1CC1)c1ccc(C(C)C)cc1` [compound 1, (R)-N-((2-acetamidophenyl)(4-isopropylphenyl)methyl)cyclopropanecarboxamide], the values for the IC50 in assay [1] and in assay [2] were 285 nM and above 100000 nM, respectively.

As to `COCCN1CCC(C(=O)Nc2ccccc2[C@H](NC(=O)[C@H]2C[C@@H]2F)c2ccc(C(C)C)cc2)CC1` [compound 13, N-(2-((R)-((1R,2S)-2-fluorocyclopropane-1-carboxamido)(4-isopropylphenyl)methyl)phenyl)-1-(2-methoxyethyl)piperidine-4-carboxamide], the figures for the IC50 in assay [1] and in assay [2] were 1040 nM and above 100000 nM, respectively.
